≈ marks a conversion by molar mass, not a printed value. Read-outs that look alike come from different tables or passages of the source.
Assays:
[1] = system: menschlichen Keratinozyten (HaCat); assay: Inhibition of cell proliferation, neutral red (NR) method; assay type: cell-based; details: Homo sapiens, read-out: NR-Methode *IC50
From the text: (§1) Die Zellproliferation der Hautzellen wurde anhand der bekannten Neutralrotmethode untersucht. Die Zellschädigung wurde durch gleichzeitige Untersuchung der Freisetzung eines cytosolischen Enzyms, der Lactatdehydrogenase, zusätzlich bestimmt. In einigen Versuchen wurde auch die DNA-Synthese anhand der Inkorporation von ^3H-Thymidin mituntersucht.

[2] = Cytotoxicity, release of lactate dehydrogenase (LDH); assay type: cell-based, menschlichen; details: human
From the text: as §1

[3] = system: menschlichen Keratinozyten (HaCat); assay: DNA synthesis, 3H-thymidine incorporation; assay type: cell-based; details: Homo sapiens; HaCat keratinocytes; influence on DNA synthesis; read-out: ^3H-Thymidin-Einbau
From the text: as §1

[4] = HaCat keratinocytes, 50% inhibition of cell growth

SMILES	IC50 [1, 4] [µg/mL]	CC50 ([2]; hacat keratinocytes) [µg/mL]	IC50 [3] [µg/mL]	IC50 ([1]; HaCaT) [µg/mL]	CC50 ([2]; HaCat keratinocytes, measure of cytotoxicity, as concentration of the active substance, read-out: LDH-Freisetzung*) [µg/mL]
OCc1ccccc1O [Salicylalkohol, 2-Hydroxybenzylalkohol]	780 (≈ 6.28 mM)	> 600	300 (≈ 2.42 mM)	–	–
O=C(O)/C=C\C(=O)O [Maleinsäure]	1700 (≈ 14.6 mM)	> 1000	–	–	–
O=Cc1ccccc1O [Salicylaldehyd]	34 (≈ 0.278 mM)	> 100	–	–	–
C[C@@H]1C[C@H]2[C@@H]3CCC4=CC(=O)C=C[C@]4(C)[C@@]3(F)[C@@H](O)C[C@]2(C)[C@@]1(O)C(=O)CO [Dexamethason]	–	> 600	–	800 (≈ 2.04 mM)	–
O=C(O)c1ccccc1O [Na-Salicylat, Natriumsalicylat]	–	–	–	1500 (≈ 10.9 mM)	> 2000
O=C(O)/C=C/C(=O)O [Na-Fumarat, Natriumfumarat]	4900 (≈ 42.2 mM)	> 10000	–	–	–
